In ChEMBL document CHEMBL3739313, “4-Methylcoumarins with cytotoxic activity against T24 and RT4 human bladder cancer cell lines” (2015):
The source made the active and inactive calls. No cut-off for these calls is given here.

Tests used:
[1] = Cytotoxicity against human T24 cells assessed as reduction of cell count at 50 uM after 24 hrs; type: functional, T-24; set-up: scale not given: the % may be the effect or the level left
T-24 = test: Induction of apoptosis in human T24 cells at 50 uM after 24 hrs using annexin V/propidium iodide staining by flow cytometry assay; type: functional
[2] = Cytotoxicity against human T24 cells assessed as reduction of cell viability at 50 uM after 24 hrs by MTT assay; type: functional, T-24
RT-4 = test: Cytotoxicity against human RT4 cells assessed as reduction of cell viability at 5 to 100 uM after 24 hrs by MTT assay; type: functional, cell-based
[3] = Cytotoxicity against human T24 cells assessed as reduction of cell viability at 50 uM after 48 hrs by MTT assay; type: functional, T-24
[4] = Cytotoxicity against human T24 cells assessed as reduction of cell viability at 10 uM after 48 hrs by MTT assay; type: functional, T-24
[5] = Cytotoxicity against human T24 cells assessed as reduction of cell viability at 25 uM after 48 hrs by MTT assay; type: functional, T-24
[6] = Cytotoxicity against human T24 cells assessed as reduction of cell viability at 100 uM after 48 hrs by MTT assay; type: functional, T-24
[7] = Cell cycle arrest in human T24 cells assessed as accumulation at sub-G1 phase at 50 to 100 uM after 24 hrs by flow cytometry assay; type: functional, cell-based; details: T-24

Cc1cc(=O)oc2c(O)c(O)cc(C(=O)O)c12
Activity [1]: 44.52% | Activity (T-24): 22.57% | Activity [2]: 24.14% | Activity (RT-4): inactive | Activity [3]: 63.95% | Activity [4]: 21.37% | Activity [5]: 62.26% | Activity [6]: 65.64% | Activity [7]: Active
